Experimental findings from patent US9593149B2, “Amylin and calcitonin receptor agonist” (Novo Nordisk A/S, priority 2014, dated 2017) are described below.

Numbered stars: 1 amine (or outer) side, 2 acyl side, 3 side chain; on linkers, the order of the positions; unused ones are H or OH. Side chains are listed from the residue outwards. Peptide text beside a SMILES is read from it. * marks the point of attachment. C20 diacid = O=C(O)CCCCCCCCCCCCCCCCCCC(=O)*; C18 diacid = O=C(O)CCCCCCCCCCCCCCCCC(=O)*; γGlu = O=C(O)[C@H](CCC(=O)[*:2])N[*:1]

The target of assay [1] is T1, human calcitonin (a) receptor, BHK570 cells (Homo sapiens, UniProt P30988).
T1 construct: host or cells: BHK570
T1 sequence (P30988 25-474): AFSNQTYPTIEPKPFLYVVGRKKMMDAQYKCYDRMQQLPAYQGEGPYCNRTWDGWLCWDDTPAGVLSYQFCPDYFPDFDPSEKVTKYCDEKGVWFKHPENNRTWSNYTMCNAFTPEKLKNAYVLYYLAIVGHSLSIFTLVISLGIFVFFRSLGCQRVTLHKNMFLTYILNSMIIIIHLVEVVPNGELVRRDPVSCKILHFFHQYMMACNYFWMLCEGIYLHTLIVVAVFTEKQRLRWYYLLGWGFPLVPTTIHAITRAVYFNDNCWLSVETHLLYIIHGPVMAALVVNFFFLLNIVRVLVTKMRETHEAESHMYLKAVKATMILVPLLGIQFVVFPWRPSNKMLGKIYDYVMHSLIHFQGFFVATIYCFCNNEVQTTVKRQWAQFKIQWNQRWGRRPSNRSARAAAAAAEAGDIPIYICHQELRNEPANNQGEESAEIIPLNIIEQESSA
The assay can be described thus: Assay (II)b functional CRE-luciferase assay without albumin, human calcitonin receptor. Format: cell-based. The note with it: Tested without HSA; read-out: hCTR funct. EC50. In short, it runs like this: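 BHK570 cells stably expressing human calcitonin receptor with CRE-luciferase reporter, plus RAMP-3 for the amylin 3(a) line. Cells stimulated 3 hours at 37 °C in albumin-free assay medium (0.1% ovalbumin, 10 mM Hepes pH 7.4); cAMP-driven luciferase read by luminescence.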

The target in assay [2] is T2, human calcitonin receptor (Homo sapiens, UniProt P30988).
T2 construct: expressed in transfected cells; host or cells: BHK tk'ts 13
T2 sequence (P30988 25-474): T1 sequence (P30988 25-474)
Briefly: Assay (VII) binding to the human calcitonin receptor (membrane, SPA). The note with it: membranes, 125I-Calcitonin; read-out: hCT-R binding IC50. As to the method:
Assay (VII)—Determination of Binding to the Human Calcitonin Receptor (Membrane)
The binding assay was performed using scintillation proximity assay (SPA) beads (RPNQ0001) from PerkinElmer® and cell membranes prepared from a BHK tk'ts 13 cell line was stably transfected with the human calcitonin receptor and a CRE-responsive luciferase reporter gene. Membranes were prepared in the following way; the cells were rinsed with PBS and incubated with Versene for approximately 5 min before harvesting. The cells were flushed with PBS and the cell-suspension was centrifuged for 5 min at 1000 rpm. Cells were homogenized in a buffer containing 20 mM Na-HEPES and 10 mM EDTA (pH 7.4) and centrifuged at 20.000 rpm for 15 min. The resulting pellet was resuspended, homogenized and centrifuged (20.000 rpm, 15 min) in a buffer containing 20 mM Na-HEPES and 0.1 mM EDTA (pH 7.4, buffer 2). The resulting pellet was resuspended in buffer 2 and protein concentration was tested (BCA protein Assay, Pierce). The homogenate was kept cold during the whole procedure. The membranes were kept at −80° C. until use. Assay was performed in a 384 well Optiplate (PerkinElmer®) in a total volume of 40 ul. Membranes were mixed with SPA beads. Final concentration of membranes 35 ng/μL final and Final concentration of SPA beads was 0.05 mg/well. Test-compounds were dissolved in DMSO and further diluted in assay buffer (50 mM Hepes, pH 7.4, 1 mM CaCl2, 5 mM MgCl2, 0.1% OA and 0.02% Tween20). Radioligand ^125I-Calcitonin was dissolved in assay buffer and added to the Optiplate at a final concentration of 75 pM/well (approx. 30.000 cpm/10 ul). The final mixture was incubated for 120 min with shaking at 400 rpm at 25° C. prior to centrifugation (1500 rpm, 10 min). Samples were analyzed on TopCounter™ (Packard). The IC50 was calculated using (one site binding competition analysis) GraphPad Prism5 as a measure of receptor affinity.

By EC50 is commonly meant the concentration needed to bring the measured effect to its halfway point. Usually IC50 stands for the concentration needed to halve the response being measured. As to `CC(C)C[C@H](NC(=O)[C@H](CCC(=O)O)NC(=O)[C@H](C)NC(=O)[C@@H](NC(=O)[C@H](CC(C)C)NC(=O)[C@H](CCCNC(=N)N)NC(=O)CNC(=O)[C@H](CC(C)C)NC(=O)[C@@H](NC(=O)[C@H](C)NC(=O)[C@@H](NC(=O)[C@@H](NC(=O)[C@H](CC(C)C)NC(=O)[C@H](CCC(=O)O)NC(=O)[C@H](CO)NC(=O)[C@H](C)NC(=O)CC[C@H](NC(=O)CCCCCCCCCCCCCCCCC(=O)O)C(=O)O)[C@@H](C)O)[C@@H](C)O)C(C)C)[C@@H](C)O)C(=O)N[C@@H](Cc1c[nH]cn1)C(=O)N[C@@H](CCC(=O)O)C(=O)N[C@@H](CC(C)C)C(=O)N[C@@H](CCC(=O)O)C(=O)N[C@H](C(=O)N[C@@H](CC(C)C)C(=O)N1CCC[C@H]1C(=O)N[C@@H](CCCNC(=N)N)C(=O)N[C@H](C(=O)N[C@@H](CCC(=O)O)C(=O)N[C@H](C(=O)NCC(=O)N[C@H](C(=O)NCC(=O)N[C@H](C(=O)N1CCC[C@H]1C(N)=O)[C@@H](C)O)[C@@H](C)O)[C@@H](C)O)[C@@H](C)O)[C@@H](C)O` [compound 105, [N-terminal(C18 diacid-gGlu), des1, 6T, 9V, 14T, 21E, 30T, 31G, 32T]mimylin] ({C18 diacid-γGlu}-ASELTTAVLGRLTAELHELETLPRTETGTGTP-NH2), the EC50 in assay [1] was 0.045 nM. Moreover, the IC50 in assay [2] worked out at 0.222 nM.

Consider `CC(=O)N[C@@H](C)C(=O)N[C@@H](CO)C(=O)N[C@@H](CCCCNC(=O)CC[C@H](NC(=O)CCCCCCCCCCCCCCCCCCC(=O)O)C(=O)O)C(=O)N[C@@H](CC(C)C)C(=O)N[C@@H](CO)C(=O)N[C@H](C(=O)N[C@@H](C)C(=O)N[C@@H](C)C(=O)N[C@@H](CC(C)C)C(=O)NCC(=O)N[C@@H](CCCNC(=N)N)C(=O)N[C@@H](CC(C)C)C(=O)N[C@@H](CO)C(=O)N[C@@H](C)C(=O)N[C@@H](CCC(=O)O)C(=O)N[C@@H](CC(C)C)C(=O)N[C@@H](Cc1c[nH]cn1)C(=O)N[C@@H](CCC(=O)O)C(=O)N[C@@H](CC(C)C)C(=O)N[C@@H](C)C(=O)N[C@H](C(=O)N[C@@H](CC(C)C)C(=O)N1CCC[C@H]1C(=O)N[C@@H](CCCNC(=N)N)C(=O)N[C@H](C(=O)N[C@@H](CCC(=O)O)C(=O)N[C@H](C(=O)NCC(=O)N[C@@H](CO)C(=O)NCC(=O)N[C@@H](CO)C(=O)N1CCC[C@H]1C(N)=O)[C@@H](C)O)[C@@H](C)O)[C@@H](C)O)[C@@H](C)O` [compound 68, [N-terminal(acetyl), des1, 4K(C20 diacid-gGlu), 30S, 31G]mimylin] (Ac-ASK([γGlu-C20 diacid])LSTAALGRLSAELHELATLPRTETGSGSP-NH2), for which the EC50 in assay [1] was 0.027 nM. In addition, the IC50 in assay [2] came out at 0.01 nM. Consider `CC(C)C[C@H](NC(=O)[C@H](C)NC(=O)[C@H](C)NC(=O)[C@@H](NC(=O)[C@H](CO)NC(=O)[C@H](CC(C)C)NC(=O)[C@H](CCC(=O)O)NC(=O)[C@H](CO)NC(=O)[C@H](C)NC(=O)[C@H](C)NC(=O)CC[C@H](NC(=O)CCCCCCCCCCCCCCCCCCC(=O)O)C(=O)O)[C@@H](C)O)C(=O)NCC(=O)N[C@@H](CCCNC(=N)N)C(=O)N[C@@H](CC(C)C)C(=O)N[C@@H](CO)C(=O)N[C@@H](C)C(=O)N[C@@H](CCC(=O)O)C(=O)N[C@@H](CC(C)C)C(=O)N[C@@H](Cc1c[nH]cn1)C(=O)N[C@@H](CCC(=O)O)C(=O)N[C@@H](CC(C)C)C(=O)N[C@@H](C)C(=O)N[C@H](C(=O)N[C@@H](Cc1ccc(O)cc1)C(=O)N1CCC[C@H]1C(=O)N[C@@H](CCCNC(=N)N)C(=O)N[C@H](C(=O)N[C@@H](CCC(=O)O)C(=O)N[C@H](C(=O)NCC(=O)N[C@@H](CO)C(=O)NCC(=O)N[C@@H](CO)C(=O)N1CCC[C@H]1C(N)=O)[C@@H](C)O)[C@@H](C)O)[C@@H](C)O` [compound 57, [N-terminal(C20 diacid-gGlu), 1A, 23Y, 30S, 31G]mimylin] ({C20 diacid-γGlu}-AASELSTAALGRLSAELHELATYPRTETGSGSP-NH2), for which the EC50 in assay [1] amounted to 0.022 nM. Further, the IC50 in assay [2] was 0.108 nM. Take `CC(C)C[C@H](NC(=O)[C@H](CCCNC(=N)N)NC(=O)CNC(=O)[C@H](CC(C)C)NC(=O)[C@@H](NC(=O)[C@H](C)NC(=O)[C@@H](NC(=O)[C@H](CO)NC(=O)[C@H](CC(C)C)NC(=O)[C@H](CCC(=O)O)NC(=O)[C@H](CO)NC(=O)[C@H](C)NC(=O)CC[C@H](NC(=O)CCCCCCCCCCCCCCCCCCC(=O)O)C(=O)O)[C@@H](C)O)C(C)C)C(=O)N[C@@H](CO)C(=O)N[C@@H](CCC(N)=O)C(=O)N[C@@H](CCC(=O)O)C(=O)N[C@@H](CC(C)C)C(=O)N[C@@H](Cc1c[nH]cn1)C(=O)N[C@@H](CCC(=O)O)C(=O)N[C@@H](CC(C)C)C(=O)N[C@@H](CCC(N)=O)C(=O)N[C@H](C(=O)N[C@@H](Cc1ccc(O)cc1)C(=O)N1CCC[C@H]1C(=O)N[C@@H](CCCNC(=N)N)C(=O)N[C@H](C(=O)N[C@@H](CCC(=O)O)C(=O)N[C@H](C(=O)NCC(=O)N[C@@H](CO)C(=O)NCC(=O)N[C@H](C(=O)N[C@@H](Cc1ccc(O)cc1)C(N)=O)[C@@H](C)O)[C@@H](C)O)[C@@H](C)O)[C@@H](C)O` [compound 114, [N-terminal(C20 diacid-gGlu), des1, 9V, 15Q, 21Q, 23Y, 30S, 31G, 32T, 33Y]mimylin]: the IC50 in assay [2] worked out at 0.085 nM.
